# Values of other authors in paper PMC8201747, “Cell Permeability of Isomeric Macrocycles: Predictions and NMR Studies” (ACS Medicinal Chemistry Letters, 2021).
# Test system: Caco-2 cell monolayer
# Details: Table S17, reported previously, ref 13 (SI); for ER (efflux ratio): Caco-2
ER (efflux ratio),"Permeability (passive permeability across a Caco-2 cell monolayer, Papp AB+inhibitor cocktail) [nm/s]",SMILES
1.40,18.9,CO[C@H]1CN(C)C(=O)c2cc(C#N)ccc2OC[C@@H]2O[C@H](CC[C@H]2OC)CCN(C)C(=O)[C@@H]1C [Macrocycle 5]
0.81,230.8,CO[C@@H]1CC[C@@H]2CCN(C)C(=O)[C@H](C)[C@H](OC)CN(C)C(=O)c3cccc(C#N)c3OC[C@@H]1O2 [Macrocycle 6]
0.78,63.6,CO[C@H]1CN(C)C(=O)c2cccc(C#N)c2OC[C@@H]2O[C@H](CC[C@H]2OC)CCN(C)C(=O)[C@@H]1C [Macrocycle 7]
